# Assays:
# [1] = tested on: Kentucky and Merion turfgrass mixture; test: Turfgrass growth retardation (height and fresh weight of clippings) after spraying; assay type: in vivo; details: vs control
# Procedure: Two known plant growth regulants were similarly tested. Some grass samples were not treated, only fertilized, as controls. Before treatment, the grass was cut and then fertilized with a 20-20-20 water-soluble fertilizer. Three pots were sprayed per treatment. […] The pots were placed in a plant growth room and were watered daily. The grass was cut at 21, 49 and 84 days after being treated; the blade height and total fresh weight of the clippings were measured.
# [2] = tested on: field grown tomato plants; test: Fruit set and phytotoxicity in field grown tomato plants; assay type: in vivo; details: for Increase Over Control (%) of fruit set: 24 days; for Fruit Set Per Plant (After 24 days): 24 days after treatment; for Increase (%) of fruit set: initial to 24 days
# Excerpt: To determine fruit set effects by compounds of this invention, field grown tomato plants were foliage sprayed with the cis-2,5-dimethylpyrrolidine salt of […], 9-cis-2,5-dimethyl-1-pyrrolidinyl-2-chlorofluorene-9-carboxylic acid, methyl ester, and the commercial plant growth regulant, MAINTAIN CF-125 (methyl-2-chloro-9hydroxyfluorene-9-carboxylate, manufactured by U.S. Borax and Chemical Corp.). Rates of application employed were 5, 25, and 100 ppm when the tomato plants were in the late blooming to early fruit setting stage. Untreated plants were included in the test as controls. Five plants were sprayed for each chemical treatment. The number of fruit set and the degree of phytotoxicity to the plants were determined 24 days after treatment.
# [3] = tested on: field grown tomato plants; test: Overall yield and fruit size of field grown tomatoes; assay type: in vivo; details: for Fruit Size, Green (% of Control): control 104.0 g; for Fruit Size, Red (% of Control): control 105.5 g
# Excerpt: This example illustrates the effects of compounds of this invention on overall yield of tomatoes. For the test, field grown tomato plants, when in the early flowering stage, were foliage sprayed with the particular compounds of the invention designated below, and with the commercial product CF-125 (Maintain), at rates of 10, 50 and 500 ppm. These rates correspond to applications of 3.69 g, 18.54 g and 185.4 g/hectare, respectively. Each treatment consisted of five plants; the experimental design was a complete randomized block with three replications. A block of untreated plants was included as the control. The fruit was harvested by hand and separated into […] ripe fruit and marketable green fruit.
# [4] = tested on: plants being treated; details: background; in many instances; cited from earlier work
# [5] = tested on: "Walter" variety tomato plants; test: Yield of "Walter" variety tomatoes, weekly harvest of mature red fruit; assay type: in vivo; details: for Total Fruit / Total Fruit, % of Control: weeks 1-6
# Excerpt: Compounds of this invention were further tested as tomato yield enhancers as follows:
# "Walter" variety tomato plants, in the early flowering stage, were foliage sprayed at a rate of 68.8 liters/hectare with compounds of this invention, and with the commercial product, CF-125. Each plot consisted of 20 plants; the experimental design was a completed randomized block with three replications. A plot of untreated plants was included as a control. Marketable, mature red tomatoes were harvested weekly, beginning 5 weeks after treatment.
# [6] = 1.12 kilogram/hectare, after 21 days
# [7] = 1.12 kilogram/hectare, after 49 days
# [8] = 1.12 kilogram/hectare, after 84 days
# [9] = 2.24 kilogram/hectare, after 21 days
# [10] = 2.24 kilogram/hectare, after 49 days
# [11] = 2.24 kilogram/hectare, after 84 days
# [12] = 4.48 kilogram/hectare, after 49 days
# [13] = 4.48 kilogram/hectare, after 84 days
smiles,measurement,setting,value
"COC(=O)C1(O)c2ccccc2-c2ccc(Cl)cc21 (stereo not shown) [MAINTAIN CF-125, methyl-2-chloro-9-hydroxyfluorene-9-carboxylate]",% Reduction in Weight,[1]; [6],31%
same,Reduction in Height,[1]; [6],36%
same,% Reduction in Weight,[1]; [7],0%
same,Reduction in Height,[1]; [7],3%
same,% Reduction in Weight,[1]; [8],0%
same,Reduction in Height,[1]; [8],0%
same,% Reduction in Weight,[1]; [9],38%
same,Reduction in Height,[1]; [9],42%
same,% Reduction in Weight,[1]; [10],0%
same,Reduction in Height,[1]; [10],0%
same,% Reduction in Weight,[1]; [11],0%
same,Reduction in Height,[1]; [11],0%
same,Reduction in Height,"[1]; 4.48 kilogram/hectare, after 21 days",50%
same,% Reduction in Weight,[1]; [12],4%
same,Reduction in Height,[1]; [12],14%
same,% Reduction in Weight,[1]; [13],0%
same,Reduction in Height,[1]; [13],0%
same,% Reduction in Weight,"[1]; third dosage column, printed 1.12 kilogram/hectare, after 21 days",52%
same,Increase Over Control (%) of fruit set,[2]; 5 ppm,-35%
same,Fruit Set Per Plant (After 24 days),[2]; 5 ppm,11.8
same,Fruit Set Per Plant (Initial),[2]; 5 ppm,7.8
same,Increase (%) of fruit set,[2]; 5 ppm,38%
same,Increase Over Control (%) of fruit set,[2]; 25 ppm,-23%
same,Fruit Set Per Plant (After 24 days),[2]; 25 ppm,12.6
same,Fruit Set Per Plant (Initial),[2]; 25 ppm,8.4
same,Increase (%) of fruit set,[2]; 25 ppm,50%
same,Increase Over Control (%) of fruit set,[2]; 100 ppm,-55%
same,Fruit Set Per Plant (After 24 days),[2]; 100 ppm,8.0
same,Fruit Set Per Plant (Initial),[2]; 100 ppm,6.8
same,Increase (%) of fruit set,[2]; 100 ppm,18%
same,"Fruit Yield, Green (% of Control)",[3]; 10 ppm,25 % of Control
same,"Fruit Yield, Red (% of Control)",[3]; 10 ppm,24 % of Control
same,Total Yield (% of Control),[3]; 10 ppm,25 % of Control
same,"Fruit Size, Green (% of Control)",[3]; 10 ppm,104 % of Control
same,"Fruit Size, Red (% of Control)",[3]; 10 ppm,97 % of Control
same,"Fruit Yield, Green (% of Control)",[3]; 50 ppm,12 % of Control
same,"Fruit Yield, Red (% of Control)",[3]; 50 ppm,122 % of Control
same,Total Yield (% of Control),[3]; 50 ppm,44 % of Control
same,"Fruit Size, Green (% of Control)",[3]; 50 ppm,62 % of Control
same,"Fruit Size, Red (% of Control)",[3]; 50 ppm,88 % of Control
same,"Fruit Yield, Green (% of Control)",[3]; 500 ppm,3 % of Control
same,"Fruit Yield, Red (% of Control)",[3]; 500 ppm,79 % of Control
same,Total Yield (% of Control),[3]; 500 ppm,29 % of Control
same,"Fruit Size, Green (% of Control)",[3]; 500 ppm,54 % of Control
same,"Fruit Size, Red (% of Control)",[3]; 500 ppm,108 % of Control
same,"phytotoxicity, in words",[4],phytotoxic to the plants being treated
same,Fruit Yield (kg/plot),[5]; 5 ppm,25.6 kg/plot
same,Total Yield Wt. % of Control,[5]; 5 ppm,108.0 % of Control
same,"Fruit harvested, Harvest Time (Week) 1",[5]; 5 ppm,34
same,"Fruit harvested, Harvest Time (Week) 2",[5]; 5 ppm,206
same,"Fruit harvested, Harvest Time (Week) 3",[5]; 5 ppm,139
same,"Fruit harvested, Harvest Time (Week) 4",[5]; 5 ppm,40
same,"Fruit harvested, Harvest Time (Week) 5",[5]; 5 ppm,29
same,"Fruit harvested, Harvest Time (Week) 6",[5]; 5 ppm,178
same,Total Fruit,[5]; 5 ppm,626
same,"Total Fruit, % of Control",[5]; 5 ppm,109 % of Control
same,Fruit Yield (kg/plot),[5]; 10 ppm,15.3 kg/plot
same,Total Yield Wt. % of Control,[5]; 10 ppm,64.8 % of Control
same,"Fruit harvested, Harvest Time (Week) 1",[5]; 10 ppm,6
same,"Fruit harvested, Harvest Time (Week) 2",[5]; 10 ppm,192
same,"Fruit harvested, Harvest Time (Week) 3",[5]; 10 ppm,92
same,"Fruit harvested, Harvest Time (Week) 4",[5]; 10 ppm,16
same,"Fruit harvested, Harvest Time (Week) 5",[5]; 10 ppm,4
same,"Fruit harvested, Harvest Time (Week) 6",[5]; 10 ppm,69
same,Total Fruit,[5]; 10 ppm,379
same,"Total Fruit, % of Control",[5]; 10 ppm,66 % of Control
same,Fruit Yield (kg/plot),[5]; 50 ppm,2.6 kg/plot
same,Total Yield Wt. % of Control,[5]; 50 ppm,11.0 % of Control
same,"Fruit harvested, Harvest Time (Week) 1",[5]; 50 ppm,15
same,"Fruit harvested, Harvest Time (Week) 2",[5]; 50 ppm,18
same,"Fruit harvested, Harvest Time (Week) 3",[5]; 50 ppm,8
same,"Fruit harvested, Harvest Time (Week) 4",[5]; 50 ppm,0
same,"Fruit harvested, Harvest Time (Week) 5",[5]; 50 ppm,0
same,"Fruit harvested, Harvest Time (Week) 6",[5]; 50 ppm,2
same,Total Fruit,[5]; 50 ppm,43
same,"Total Fruit, % of Control",[5]; 50 ppm,7 % of Control
